# Measurements from patent US20250144049A1, “METHODS, COMPOSITIONS, AND USES RELATED TO THE TREATMENT AND PREVENTION OF LEIGH SYNDROME” (Stealth BioTherapeutics Inc., priority 2023, published 2025).
# Columns and labels:
# Format in all cases: cell-based, human
# [1] = system: Healthy (GM08402) fibroblasts; test: RSL3 cytoprotection assay, healthy fibroblasts; details: 1 μM RSL3, 4 hours, FIG. 8
# Method: (§1) Patient fibroblasts were acquired from Coriell Institute for Medical Research (Camden, NJ, USA). GM03672 is an untransformed fibroblast cell line from a Leigh syndrome patient carrying an unknown mutation. GM08402 is an untransformed fibroblast from an apparently healthy individual. Cells were cultured at 37° C. at 5% CO2 in Eagle's Minimum Essential Medium (MEM, Corning), which was supplemented with Earle's salts and non-essential amino acids, 15% qualified fetal bovine serum, and 1% penicillin/streptomycin ([…]) to yield “Complete MEM.”
# (§2) To initiate the RSL3 cytoprotection experiment, Healthy (GM08402) and Leigh syndrome (GM03672) fibroblasts were resuspended in Complete MEM. Cells were seeded at 10,000 cells per well in a clear, tissue cultured-treated, 96-well plate and incubated at 37° C. overnight. Following the incubation, supernatant was manually aspirated, taking care not to disrupt cells. […]. Luminescence units were quantified by GEN5 software on a BioTek SYNERGY neo2 plate reader (LUM filter).
# (§3) RSL3 is an inhibitor of the enzyme glutathione peroxidase 4 (GPX4), which decreases lipid peroxides. RSL3 inhibition of GPX4 induces ferroptosis through iron-dependent accumulation of lipid ROS. In this assay, Healthy or Leigh fibroblasts were treated for 4 hours with RSL3 to induce ferroptosis or left untreated. Endogenous ATP levels were measured as an indicator of cellular viability using a commercially available kit (CellTiter-Glo® 2.0 Cell Viability Assay (Promega)).
# (§4) […]. […] Briefly, ferroptosis was induced with 1 μM RSL3 in healthy fibroblast cells and 375 nM RSL3 in fibroblasts from a patient with Leigh syndrome.
# (§5) A preliminary experiment was performed to determine the effect of RSL3 injury on the fibroblasts of a healthy individual (cell line: GM08402) and the fibroblasts of a patient diagnosed with Leigh syndrome (cell line: GM03672).
# [2] = system: Leigh syndrome (GM03672) fibroblasts; test: RSL3 cytoprotection assay, Leigh fibroblasts; details: RSL3, 4 hours, FIG. 9
# Method: as §1, §2, §3, §4, §5
# 15-lipoxygenase (15-LO) = test: 15(S)-HETE ELISA following RSL3 treatment, Leigh fibroblasts; details: 700 nM RSL3, 1 μM compound, FIG. 11
# Method: Samples for the 15(S)-HETE ELISA were generated by the RSL3 cytoprotection assay described above. Healthy or Leigh fibroblasts were resuspended in assay medium, seeded at 200,000 cells per well in a clear, tissue culture-treated, 24-well plate. Cells were incubated at 37° C. for 24 hours. Supernatant was aspirated from each well following the incubation.
# Fibroblasts from both a healthy individual and a patient diagnosed with Leigh syndrome were examined (but not all compounds were examined in each cell type). Activation of ferroptosis has been implicated as a driver of epilepsy, which is commonly associated with Leigh syndrome. […] Kahn-Kirby et al. PLOS One. […] As a key regulator of ferroptosis, 15-LO serves as a rational therapeutic target in Leigh syndrome.
# [3] = system: Healthy (GM08402) fibroblasts; test: Erastin cytoprotection assay, healthy fibroblasts; details: 2 μM erastin, 24 hours, FIG. 12
# Method: (§6) Briefly, Healthy (GM08402) or Leigh (GM03672) fibroblasts were resuspended in assay medium, seeded at 10,000 cells per well in a clear, tissue cultured-treated, 96-well plate, and incubated at 37° C. overnight. Following the incubation, supernatant was manually aspirated from wells, taking care not to disrupt cells. Fibroblasts were co-treated in a final volume of 100 μL with 2 μM erastin (Millipore Corp., Cat #), 250 μM ferric ammonium citrate (FAC), 50 µM ascorbic acid (AA), and a titration of one of each of Compounds 1 to 4 or Vatiquinone ranging from 10 to 1000 nM. Following another 24-hour incubation at 37° C., cell viability was measured using the CellTiter-Glo Luminescent Cell Viability Kit (ProMega) per Manufacturer's instructions. Luminescence units were quantified by GEN5 software on a BioTek SYNERGY neo2 plate reader (LUM filter).
# (§7) Briefly, erastin, like RSL3, is known to induce ferroptosis. […] Erastin was incubated with cell fibroblasts for 24 hours to induce ferroptosis. Cells were co-treated with each of Compounds 1 to 4, or Vatiquinone as the test articles. Test articles were administered at a range of concentrations to derive a curve. Cell viability was determined using a commercially available kit that measures ATP production. […] An increase in cell viability as determined by the assay is considered to be protective against ferroptosis.
# [4] = system: Leigh (GM03672) fibroblasts; test: Erastin cytoprotection assay, Leigh fibroblasts; details: 2 μM erastin, 24 hours, FIG. 13
# Method: as §6, §7
# [5] = system: Leigh fibroblasts (GM03672); test: Mitochondrial membrane potential (TMRM flow cytometry) in RSL3-treated Leigh fibroblasts; details: 1 μM RSL3 with 1 μM compound, 4 hours
# Method: Leigh fibroblasts (GM03672) were seeded in a 24-well, tissue culture-treated plate in complete MEM (MEM+15% FBS+1% penicillin/streptomycin) at a density of 1×10^5 cells per 500 μL and incubated overnight at 37° C. at 5% CO2. Cells were treated for 4 hours at 37° C. with either 1 μM RSL3, 1 μM RSL3 with 1 μM Compound 3 or media for untreated cells. Following the incubation, supernatant was removed and cells were treated with 0.25% trypsin for 5 min at 37° C. Trypsin was neutralized with an equal part MEM. Cells were dislodged with gentle pipetting and pelleted at 300×g for 5 minutes. Pellets were resuspended in 500 μL Fluobrite DMEM and cells were transferred to a 96-well, v-bottom plate. Cells were stained with 20 nM MitoTracker Green and 100 nM tetramethylrhodamine methyl ester (TMRM) Samples were incubated for 25 minutes at 37° C. Each well was mixed immediately prior to analysis to resuspend settled cells. Fluorescence intensity was measured on the BD Accuri C6 Plus Flow Cytometer. A minimum of 10,000 events per sample was collected. Data analysis was performed using FloJo vs. 10. Gating was performed by establishing an initial forward scatter vs. side scatter gate. […] Median fluorescence intensity (MFI) of TMRM fluorescence was determined. Using GraphPad Prism 10, statistical significance between groups was determined by One-way ANOVA. […]
smiles,measurement,setting,value
CC1=C(C)C(=O)C(CC[C@@](C)(O)COCCC[Si](C)(C)C)=C(C)C1=O [Compound 3],anti-ferroptosis properties compared among test articles,[1],"superior to Compounds 1, 4 and Vatiquinone"
same,anti-ferroptosis properties compared among test articles,[2],"superior to Compounds 1, 4 and Vatiquinone"
same,15-LO inhibition compared among test articles,15-lipoxygenase (15-LO),roughly equivalent protective effect
same,protective effect compared among test articles,[3],superior in their protective effect
same,protective effect compared among test articles,[4],superior in their protective effect
same,protection from loss of mitochondrial membrane potential (TMRM MFI),[5],protective
CC1=C(C)C(=O)C(CC[C@](C)(O)CCCCCCCCC(F)(F)F)=C(C)C1=O [Compound 4],anti-ferroptosis properties compared among test articles,[1],roughly equivalent
same,anti-ferroptosis properties compared among test articles,[2],roughly equivalent
same,15-LO inhibition compared among test articles,15-lipoxygenase (15-LO),roughly equivalent protective effect
same,protective effect compared among test articles,[3],about equally protective
same,protective effect compared among test articles,[4],about equally protective
same,protection from loss of mitochondrial membrane potential (TMRM MFI),[5],protective
